# Measurements published in paper PMC6891772 (Marine Drugs, 2019).
# Molecular target: T1, arylamine-N-acetyltransferase (TBNAT) (Mycobacterium tuberculosis, UniProt P9WJI5)
# T1 construct: gene nat
# T1 sequence (P9WJI5 1-283): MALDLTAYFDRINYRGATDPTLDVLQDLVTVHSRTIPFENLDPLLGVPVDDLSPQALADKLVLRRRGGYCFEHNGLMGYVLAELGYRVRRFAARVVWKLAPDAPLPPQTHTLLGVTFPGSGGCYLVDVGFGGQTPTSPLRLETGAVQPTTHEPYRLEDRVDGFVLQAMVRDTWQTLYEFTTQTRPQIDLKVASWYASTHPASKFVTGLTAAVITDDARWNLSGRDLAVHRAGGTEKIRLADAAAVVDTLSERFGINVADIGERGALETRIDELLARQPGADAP
# Assay: biochemical
row,SMILES,IC50
1,NNC(=O)c1ccncc1 [isoniazid],5.9 ± 0.2 µM
2,CC(=O)O[C@H]1CC(C)(C)C(=C=C/C(C)=C/C=C/C(C)=C/C=C/C=C(C)/C=C/C=C(\C)C(=O)C[C@@]23O[C@]2(C)C[C@@H](O)CC3(C)C)[C@](C)(O)C1 [fucoxanthin],4.8 ± 0.4 µM
